Results: PubChem BioAssay AID292 (DTP/NCI, 2004)
Where “and” joins values, the source holds several entries; their conditions need not be identical. Identical values can stand only once. Toxic doses and inconclusive results are not listed. How the source made its calls: active means survival T/C of 150% or more; inactive means T/C below 125% in these data.

System: B6C3F1 mice, ip Sarcoma M5076, median survival T/C
Experiment: NCI In Vivo Anticancer Drug Screen. Data for tumor model Sarcoma M5076 (intraperitoneal) in B6C3F1 mice
Settings: endpoint: median survival time, higher = longer survival
Procedure: The antitumor activity of compounds was measured in mice bearing transplantable tumors. Survival or tumor size were measured and the results are expressed as the measurement made in the treated group (T) divided by the measurement made in the vehicle treated control group (C). The tumor model used in this assay is Sarcoma M5076 (intraperitoneal) in B6C3F1 mice

[1] = dose: 50.0 mg/kg/injection, schedule: Q04DX004 (ip), vehicle: saline
[2] = dose: 100.0 mg/kg/injection, schedule: Q04DX004 (ip), vehicle: saline
[3] = dose: 200.0 mg/kg/injection, schedule: Q04DX004 (ip), vehicle: saline
[4] = dose: 400.0 mg/kg/injection, schedule: Q04DX004 (ip), vehicle: saline
[5] = dose: 50.0 mg/kg/injection, schedule: Q04DX004 (ip), vehicle: saline with Tween-80
[6] = dose: 100.0 mg/kg/injection, schedule: Q04DX004 (ip), vehicle: saline with Tween-80
[7] = dose: 50.0 mg/kg/injection, schedule: Q04DX004 (ip), vehicle: Klucel (hydroxypropylcellulose) (HPC)
[8] = dose: 100.0 mg/kg/injection, schedule: Q04DX004 (ip), vehicle: Klucel (hydroxypropylcellulose) (HPC)
[9] = dose: 200.0 mg/kg/injection, schedule: Q04DX004 (ip), vehicle: Klucel (hydroxypropylcellulose) (HPC)
[10] = dose: 400.0 mg/kg/injection, schedule: Q04DX004 (ip), vehicle: Klucel (hydroxypropylcellulose) (HPC)
[11] = dose: 200.0 mg/kg/injection, schedule: Q04DX004 (ip), vehicle: saline with Tween-80
[12] = dose: 400.0 mg/kg/injection, schedule: Q04DX004 (ip), vehicle: saline with Tween-80
[13] = dose: 25.0 mg/kg/injection, schedule: Q04DX004 (ip), vehicle: Klucel (hydroxypropylcellulose) (HPC)
[14] = dose: 25.0 mg/kg/injection, schedule: Q04DX004 (ip), vehicle: saline with Tween-80
[15] = dose: 12.5 mg/kg/injection, schedule: Q04DX004 (ip), vehicle: saline with Tween-80

Measured: T/C

CC(=O)Nc1ccc(O)c(O)c1
inactive: dose: 75.0 mg/kg/injection, schedule: Q04DX004 (ip), vehicle: saline with Tween-80 107 % of control | dose: 150.0 mg/kg/injection, schedule: Q04DX004 (ip), vehicle: saline with Tween-80 113 % of control | dose: 300.0 mg/kg/injection, schedule: Q04DX004 (ip), vehicle: saline with Tween-80 105 % of control | dose: 600.0 mg/kg/injection, schedule: Q04DX004 (ip), vehicle: saline with Tween-80 101 % of control | dose: 1200.0 mg/kg/injection, schedule: Q04DX004 (ip), vehicle: saline with Tween-80 104 % of control

C=C1C(O)C2(O)OCC34C(CC5C(C)=CC(=O)C(O)C5(C)C23)OC(=O)C(OC(=O)C/C=C(\C)CCCCC)C14 (stereo not given)
inactive: dose: 1.0 mg/kg/injection, schedule: Q04DX004 (ip), vehicle: saline + alcohol 105 % of control and 107 % of control | dose: 2.0 mg/kg/injection, schedule: Q04DX004 (ip), vehicle: saline + alcohol 104 % of control and 122 % of control | dose: 4.0 mg/kg/injection, schedule: Q04DX004 (ip), vehicle: saline + alcohol 102 % of control and 108 % of control

c1cn[nH]c1
inactive: dose: 25.0 mg/kg/injection, schedule: Q04DX004 (ip), vehicle: saline 93 % of control and 100 % of control | [1] 97 % of control and 106 % of control and 107 % of control | [2] 103 % of control and 104 % of control and 107 % of control | [3] 105 % of control and 107 % of control and 110 % of control | [4] 116 % of control

CC1=Nc2cc(N)nn2C(=O)C1
inactive: [5] 96 % of control | [6] 99 % of control

COc1ccccc1NC(=O)C1C(=O)C(=O)N(c2ccccc2OC)C1=O (stereo not given)
inactive: [7] 105 % of control | [8] 97 % of control | [9] 96 % of control

Cc1ccccc1C1C(C#N)C(=O)NC(=O)C1C#N (stereo not given)
inactive: [7] 102 % of control | [8] 105 % of control | [9] 102 % of control | [10] 98 % of control

O=NNc1cnccn1
inactive: dose: 6.25 mg/kg/injection, schedule: Q04DX004 (ip), vehicle: water 107 % of control | dose: 12.5 mg/kg/injection, schedule: Q04DX004 (ip), vehicle: water 118 % of control and 123 % of control
active: dose: 50.0 mg/kg/injection, schedule: Q04DX004 (ip), vehicle: water 150 % of control and 155 % of control | dose: 100.0 mg/kg/injection, schedule: Q04DX004 (ip), vehicle: water 196 % of control

N#CC1C(=O)NC(=O)C(C#N)C1c1c2ccccc2cc2ccccc12 (stereo not given)
inactive: [7] 96 % of control | [8] 103 % of control | [9] 94 % of control | [10] 106 % of control | dose: 800.0 mg/kg/injection, schedule: Q04DX004 (ip), vehicle: Klucel (hydroxypropylcellulose) (HPC) 102 % of control

CC(O)CCC(=O)c1ccoc1 (stereo not given)
inactive: dose: 1.25 mg/kg/injection, schedule: Q03HX012 (ip), vehicle: saline 105 % of control | dose: 2.5 mg/kg/injection, schedule: Q03HX012 (ip), vehicle: saline 95 % of control | dose: 5.0 mg/kg/injection, schedule: Q03HX012 (ip), vehicle: saline 88 % of control | dose: 10.0 mg/kg/injection, schedule: Q03HX012 (ip), vehicle: saline 100 % of control

O=Cc1ccc(O)c(O)c1
inactive: [5] 100 % of control | [6] 96 % of control | [11] 104 % of control | [12] 104 % of control

O=C(Nc1ccccc1)C1C(=O)C(=O)N(c2ccccc2)C1=O (stereo not given)
inactive: [13] 99 % of control | [7] 90 % of control | [8] 92 % of control | [9] 95 % of control | [10] 95 % of control

O=S1ON=C(C2CCC(C3=NOS(=O)O3)C2)O1 (stereo not given)
inactive: [14] 108 % of control | [5] 102 % of control | [6] 103 % of control | [11] 87 % of control

O=C1C(=O)c2cccnc2-c2ncccc21
inactive: dose: 0.38 mg/kg/injection, schedule: Q04DX004 (ip), vehicle: Klucel (hydroxypropylcellulose) (HPC) 101 % of control | dose: 0.75 mg/kg/injection, schedule: Q04DX004 (ip), vehicle: Klucel (hydroxypropylcellulose) (HPC) 109 % of control | dose: 1.5 mg/kg/injection, schedule: Q04DX004 (ip), vehicle: Klucel (hydroxypropylcellulose) (HPC) 104 % of control | dose: 3.0 mg/kg/injection, schedule: Q04DX004 (ip), vehicle: Klucel (hydroxypropylcellulose) (HPC) 105 % of control | dose: 6.0 mg/kg/injection, schedule: Q04DX004 (ip), vehicle: Klucel (hydroxypropylcellulose) (HPC) 110 % of control

Cn1c(-c2ccc(Br)cc2)cc2[nH]c(=S)nc(N)c2c1=O
inactive: [5] 96 % of control | [6] 92 % of control | [11] 87 % of control

OC1(c2cccc(Cl)c2)C2=NCCCN2c2ccccc21 (stereo not given)
inactive: dose: 6.25 mg/kg/injection, schedule: Q04DX004 (ip), vehicle: saline with Tween-80 102 % of control | [15] 103 % of control | [14] 100 % of control | [5] 99 % of control

CC(CNC(=O)C12CC3CC(CC(C3)C1)C2)NC(=O)C12CC3CC(CC(C3)C1)C2 (stereo not given)
inactive: dose: 25.0 mg/kg/injection, schedule: Q04DX004 (ip), vehicle: other 94 % of control | dose: 50.0 mg/kg/injection, schedule: Q04DX004 (ip), vehicle: other 98 % of control | dose: 100.0 mg/kg/injection, schedule: Q04DX004 (ip), vehicle: other 90 % of control | dose: 200.0 mg/kg/injection, schedule: Q04DX004 (ip), vehicle: other 98 % of control

CCOC(=O)c1ccc2c(=O)[nH]nc(CO)c2c1
inactive: [14] 99 % of control | [5] 99 % of control | [6] 99 % of control | [11] 101 % of control | [12] 94 % of control

CCCCCCN1CCN(Cc2ccc(N(CC)CC)cc2)C(=O)C1=O
inactive: [13] 95 % of control | [7] 107 % of control

COC(=O)c1cc(=O)c2c(ccc3oc(=O)ccc32)[nH]1
inactive: [15] 104 % of control | [14] 96 % of control | [5] 92 % of control | [6] 89 % of control | [11] 89 % of control

[Cl][Hg][Cl]
inactive: dose: 0.38 mg/kg/injection, schedule: Q04DX004 (ip), vehicle: saline 93 % of control | dose: 0.39 mg/kg/injection, schedule: Q04DX004 (ip), vehicle: saline 96 % of control | dose: 0.75 mg/kg/injection, schedule: Q04DX004 (ip), vehicle: saline 96 % of control | dose: 0.78 mg/kg/injection, schedule: Q04DX004 (ip), vehicle: saline 86 % of control | dose: 1.5 mg/kg/injection, schedule: Q04DX004 (ip), vehicle: saline 96 % of control | dose: 1.56 mg/kg/injection, schedule: Q04DX004 (ip), vehicle: saline 87 % of control | dose: 3.0 mg/kg/injection, schedule: Q04DX004 (ip), vehicle: saline 93 % of control | dose: 3.12 mg/kg/injection, schedule: Q04DX004 (ip), vehicle: saline 87 % of control

Cc1c(O)c(O)c(C)c(CCN)c1O
inactive: dose: 31.0 mg/kg/injection, schedule: Q04DX004 (ip), vehicle: saline with Tween-80 100 % of control | dose: 62.0 mg/kg/injection, schedule: Q04DX004 (ip), vehicle: saline with Tween-80 104 % of control | dose: 112.0 mg/kg/injection, schedule: Q04DX004 (ip), vehicle: saline with Tween-80 94 % of control

CCC1OCC(C(Cl)CCl)O1 (stereo not given)
inactive: [5] 100 % of control | [6] 97 % of control | [11] 93 % of control

CCOC(=O)/C=C/C(=O)N1CCN(C(=O)/C=C/C(=O)OCC)C(C)C1 (stereo not given)
inactive: [13] 98 % of control | [7] 107 % of control | [8] 98 % of control | [9] 108 % of control | [10] 100 % of control

CC(=O)C1C(=O)C(=O)N(c2ccccc2C)C1=O (stereo not given)
inactive: [7] 104 % of control | [8] 93 % of control | [9] 102 % of control | [10] 108 % of control

N=C(N)SCc1cccc2c(=O)cc(-c3ccccc3)oc12
inactive: [1] 98 % of control | dose: 50.0 mg/kg/injection, schedule: Q04DX004 (ip), vehicle: suspension in saline 114 % of control | [2] 102 % of control | dose: 100.0 mg/kg/injection, schedule: Q04DX004 (ip), vehicle: suspension in saline 104 % of control | dose: 144.0 mg/kg/injection, schedule: Q04DX004 (ip), vehicle: suspension in saline 105 % of control and 112 % of control | [3] 106 % of control | dose: 200.0 mg/kg/injection, schedule: Q04DX004 (ip), vehicle: suspension in saline 104 % of control | dose: 240.0 mg/kg/injection, schedule: Q04DX004 (ip), vehicle: suspension in saline 101 % of control and 109 % of control | [4] 102 % of control | dose: 666.67 mg/kg/injection, schedule: Q04DX004 (ip), vehicle: suspension in saline 101 % of control | dose: 1111.11 mg/kg/injection, schedule: Q04DX004 (ip), vehicle: suspension in saline 100 % of control
